pEC50: −log10 of the molar value. Like-named read-outs stand apart in the source and are kept apart here.
Key:
[1] = system: P. falciparum 3D7; assay: DAPI stain fluorescent high content imaging assay, P. falciparum 3D7 (confirmatory screen, Avery); details: for pEC50: 3D7, read-out: EC50_nM; for inhibition of growth at 5 µM: 3D7, read-out: percent_inh @ 5 uM
[2] = system: P. falciparum 3D7; set-up: method as in ChEMBL-NTD; details: ref ChEMBL-NTD, cited from earlier work
[3] = original screening data, source (GSK, GNF, StJude), several values separated by ';' in order of sources
[4] = values follow the order of the source (GNF; GSK; StJude)

Row | SMILES | pEC50 ([1]; Plasmodium falciparum) | inhibition of growth at 5 µM ([1]; Plasmodium falciparum) | further results
1 | Clc1cc(Br)ccc1-c1ccc(CNCC2CCNCC2)o1 [MMV019918] | 6.10 | 96% | pEC50 [2, 3]: 5.82
2 | O=C(NCCCN1CCC(N2CCCCC2)CC1)C1=Cc2cc(Br)ccc2OC1 [MMV019995] | 6.25 | 99% | pEC50 ([2]; source GSK (TCMDC ids)): 6.07
3 | Cc1cc(N(C)C)nc(Nc2ccc(NC(=O)Nc3ccccc3)cc2)n1 [MMV020243] | 5.94 |  | pEC50 [2, 4]: 6.87
4 | O=C(NC1CCN(Cc2ccccc2)CC1)c1cc(-c2ccncc2)nc2ccc(Cl)cc12 [MMV020275] | 5.99 | 92% | pEC50 [2, 3]: 6.04
5 | COc1ccc(-c2cn3c(C(=O)Nc4ccccc4Cl)c(-c4ccccc4)c4c3n2CCCC4)cc1 [MMV020403] |  | 80% | pEC50 [2, 4]: 6.10
6 | CCn1c(CN2CCN(Cc3ccccc3)CC2)nc2cc(NC(=O)c3cccs3)ccc21 [MMV020439] | 6.29 | 97% | pEC50 ([2]; source GSK (TCMDC id)): 6.40
7 | O=C(NC1CCN(Cc2ccccc2)CC1)c1cc(-c2cccnc2)nc2ccc(Cl)cc12 [MMV020490] | 6.00 | 91% | pEC50 [2, 3]: 6.12
8 | CC1CN(C(=O)c2sc3ccccc3c2Cl)CC(C)O1 (centres unmarked) [MMV020492] | 7.59 | 95% | pEC50 ([2]; source GSK (TCMDC id)): 7.06
9 | CNCCCNc1ccnc2cc(Cl)ccc12 [MMV020500] | 7.09 | 98% | pEC50 ([2]; source GSK (TCMDC id)): 7.20
10 | CN(C)CCCNCc1ccc(-c2ccc(F)c(Cl)c2)o1 [MMV020505] | 6.06 | 96% | pEC50 ([2]; source GSK (TCMDC ids)): 6.10
11 | CCN1CCN(Cc2ccc(NC(=O)c3cc4ccc5cccnc5c4[nH]3)cc2)CC1 [MMV020548] | 6.44 | 70% | pEC50 ([2]; source GSK (TCMDC id)): 6.07
12 | CC1CCN(Cc2ccc(NC(=O)c3cc4ccc5cccnc5c4[nH]3)cc2)CC1 [MMV020549] | 6.56 | 97% | pEC50 ([2]; source GSK (TCMDC id)): 6.11
13 | O=C(Nc1ccc(CN2CCOCC2)cc1)c1ccc(-c2cc(Cl)ccc2Cl)o1 [MMV020651] | 5.71 | 97% | pEC50 [2, 3]: 6.21
14 | CCC(O)c1ccc(Br)cc1NC(=O)c1cccc(Cl)c1 (centres unmarked) [MMV020654] | 6.19 | 97% | pEC50 [2, 3]: 5.99
15 | COc1ccc(-c2nonc2NC(=O)c2cccc(Cl)c2)cc1OC [MMV020660] |  |  | % inh. At 2.5 uM ([1]; 2.5 uM (Comment column; solubility issue at 5 uM)): 97%; pEC50 [2, 3]: 6.06
16 | CC(=O)Nc1nnc(SCc2c(C)cc(C(C)(C)C)cc2C)s1 [MMV020700] | 6.06 | 96% | pEC50 [2, 3]: 6.15
17 | COc1cc(-c2nc(-c3ccccc3)c(-c3ccccc3)[nH]2)cc(OC)c1O [MMV020750] | 5.93 | 97% | pEC50 [2, 4]: 6.11
18 | Oc1ccccc1CNCC12CC3CC(CC(C3)C1)C2 [MMV020788] | 7.65 | 96% | pEC50 ([2]; source GSK (TCMDC id)): 6.55
19 | COc1ccc(Br)cc1C1Nc2ccc3ccccc3c2C2=C1C(=O)CC(c1ccccc1)C2 (centres unmarked) [MMV020885] | 6.74 | 95% | pEC50 ([2]; source GSK (TCMDC id)): 6.23
20 | Cc1ccc(-c2nc3ccccc3o2)cc1NCc1cc(Cc2ccccc2)ccc1O [MMV020912] |  | 64% | pEC50 [2, 4]: 5.99
21 | CCC(=O)Nc1nnc(Cc2ccc(OC)c(OC)c2)s1 [MMV020942] |  | 47% | pEC50 ([2]; source GSK (TCMDC ids)): 6.04
22 | COc1cc(SC)ccc1C(=O)N1CCCC(C)C1 (centres unmarked) [MMV056726] | 5.40 |  | inhibition of growth at 2 µM ([1]; Plasmodium falciparum, 3D7, read-out: percent_inh @ 2 uM): 45%; pEC50 [2, 3]: 5.01
23 | CN(C)c1ccc(N=Cc2ccc(N3CCOCC3)cc2)cc1 [MMV073843] |  | 96% | pEC50 [2, 4]: 6.76
24 | COc1cc2c(cc1OC)C1=NNC(=O)C1=NC(C)(C)C2 [MMV084940] | 5.98 |  | pEC50 [2, 3]: 5.80
25 | COc1ccccc1N=C1C(=O)c2ccccc2C(O)=C1N1CCCCC1 [MMV085203] | 8.28 | 98% | pEC50 ([2]; source GNF (GNF-Pf id)): 7.55

Row | SMILES | pEC50 ([1]; Plasmodium falciparum) | inhibition of growth at 5 µM ([1]; Plasmodium falciparum) | further results
26 | CCOc1ccc(-n2cc(-c3ccccc3)c3c(SCc4cc(C)ccc4C)ncnc32)cc1 [MMV085471] | 5.77 | 97% | pEC50 ([2]; source GNF (GNF-Pf ids)): 5.70
27 | CCCCCC(=O)N1c2ccccc2N=C2CC(c3ccc(OC)c(OC)c3)CC(O)=C2C1c1ccc(C(F)(F)F)cc1 (centres unmarked) [MMV085583] | 6.63 | 100% | pEC50 ([2]; source GNF (GNF-Pf id)): 6.97
28 | Cc1ccc(C(=O)c2oc3ccc4c(C)cc(=O)oc4c3c2C)cc1 [MMV086103] | 6.04 | 96% | pEC50 [2, 4]: 5.99
29 | COc1cc(CNCCc2ccc(Cl)cc2)cc(OC)c1O [MMV128432] | 5.75 | 97% | pEC50 [2, 4]: 5.16
30 | CC(C)(C)c1ccc(C(=O)Nc2nc3ccccc3s2)cc1 [MMV142383] |  | 81% | pEC50 ([2]; source StJude): 4.82
31 | CCOC(=O)c1cnc2c(CC)cccc2c1O [MMV498479] |  | 87% | pEC50 ([2]; source GNF (GNF-Pf ids)): 5.78
32 | CCN(CC)CCCNc1ccnc2cc3ccccc3cc12 [MMV665783] |  | 90% | pEC50 ([2]; source GNF (GNF-Pf ids)): 7.47
33 | CC(C)(C)c1ccc(O)c(CNC2CCCCC2)c1 [MMV665785] | 6.79 | 96% | pEC50 ([2]; source GNF (GNF-Pf id)): 6.60; pEC50 ([2]; source GSK (TCMDC id)): 6.58
34 | O=c1cc(NC2CCN(CCCc3ccccc3)CC2)c2cc(Cl)ccc2o1 [MMV665786] | 6.07 | 97% | pEC50 ([2]; source GNF (GNF-Pf ids)): 6.39
35 | CC(NCc1ccccc1)c1cc(Cl)ccc1O (centres unmarked) [MMV665789] | 6.22 | 95% | pEC50 ([2]; source GNF): 6.23
36 | FC(F)(F)c1cccc(Nc2nc3ccccc3nc2Nc2cccc(C(F)(F)F)c2)c1 [MMV665794] | 6.50 | 99% | pEC50 ([2]; source GSK (TCMDC ids)): 6.86
37 | CCOc1cc(Br)c(C(C)NC(=O)c2cccc(OC)c2)cc1OCC (centres unmarked) [MMV665796] | 5.84 | 96% | pEC50 ([2]; source GSK): 6.77
38 | CCCCOC(=O)c1ccc(Nc2cc(C)nc3ccc(OC)cc23)cc1 [MMV665797] | 6.23 | 99% | pEC50 ([2]; source GSK (TCMDC ids)): 6.19
39 | FC(F)(F)c1cccc(Nc2nc(-c3ccccc3)nc3ncccc23)c1 [MMV665798] |  | 74% | pEC50 ([2]; source GSK): 6.10
40 | COc1ccc(C(=O)Nc2ccc(Cl)cc2C(=O)Nc2ccncc2)cc1 [MMV665799] |  | 93% | pEC50 ([2]; source GSK): 6.08
41 | CCOc1cc(Cl)c(C(C)NC(=O)c2ccccc2)cc1OCC (centres unmarked) [MMV665800] | 5.86 | 96% | pEC50 ([2]; source GSK): 6.06
42 | CCOc1cc(Cl)c(C(C)NC(=O)c2cccc(OC)c2)cc1OCC (centres unmarked) [MMV665803] | 6.14 | 98% | pEC50 ([2]; source GSK): 6.02
43 | CCOc1ccc(-c2nonc2NC(=O)c2cccc(C)c2)cc1OCC [MMV665805] | 6.93 | 86% | pEC50 ([2]; source StJude): 7.21
44 | Cc1c(C)n(CC(O)CNC2CCCCC2C)c2ccccc12 (centres unmarked) [MMV665806] | 6.11 | 96% | pEC50 [2, 3]: 6.28
45 | O=C(Nc1cccc(C(F)(F)F)c1)c1cc(Cl)ccc1O [MMV665807] |  | 93% | pEC50 ([2]; source StJude): 6.01
46 | Oc1ccc(Br)cc1CN1CCN(Cc2ccc(Cl)cc2)CC1 [MMV665809] |  | 97% | pEC50 [2, 4]: 5.83
47 | CCc1ccc(CNCC(O)c2ccccc2)cc1 (centres unmarked) [MMV665812] |  | 97% | pEC50 ([2]; source StJude): 5.66
48 | CCOC(=O)c1cnc2ccc(OC)cc2c1NCc1ccccc1 [MMV665813] |  | 87% | pEC50 [2, 4]: 5.56
49 | CC(C)(C)CC(C)(C)NCC(O)COc1ccc2c(c1)CCC2 (centres unmarked) [MMV665817] |  | 78% | pEC50 ([2]; source StJude): 5.35

Reference: article PMC3684613 (PLoS ONE, 2013)
